Assay results taken from US12172999B2, “Polymorphs” (SYNGENTA PARTICIPATIONS AG, priority 2016, dated 2024).

Test: Stability of polymorphs: competitive slurry of both forms, polymorphic form determined by high throughput pXRD
Assay type: physicochemical
Procedure: Equal amounts of the polymorph of the invention and the Reference Form A polymorph were stirred in 33% methylcyclohexane/xylene for 4 days at a range of temperatures: 6° C., 35° C., 40° C. and 52° C. After the 4 days, the crystals were isolated and dried and their polymorphic form determined by high throughput pXRD. […] As such, formulations of the polymorph of the invention made and stored at up to 52° C. will be unlikely to show unwanted crystal growth.

| characteristic pXRD reflections in the isolated crystals (equal amounts of both polymorphs stirred in 33% methylcyclohexane/xylene for 4 days, all temperatures (6° C., 35° C., 40° C., 52° C.)) | Compound | stable polymorphic form (equal amounts of both polymorphs stirred in 33% methylcyclohexane/xylene for 4 days at 6° C., 35° C., 40° C. and 52° C., crystals isolated, dried, pXRD) |
| --- | --- | --- |
| absent | CCOC(=O)OC1=C(c2c(C)cc(Cl)cc2C)C(=O)N(C)C12CCN(OC)CC2 [Reference Form A] |  |
|  | CCOC(=O)OC1=C(c2c(C)cc(Cl)cc2C)C(=O)N(C)C12CCN(OC)CC2 [polymorph of the invention] | the stable form over the temperature range studied |
